Results: publication PMC8781304, “Arene-Ruthenium(II) Complexes with Carbothiamidopyrazoles as a Potential Alternative for Antibiotic Resistance in Human” (Molecules, 2022)
Values after ≈ are worked out from the molar mass of the structure shown. Where two headings read alike, the source gives them in different places.

Key:
[1] = system: S. epidermidis ATCC 12228; assay: Synergy with oxacillin and vancomycin, partial checkerboard broth microdilution; type: cell-based, Staphylococcus epidermidis; conditions: for FIC (Oxa) / FIC (Van): MIC antibiotic in combination/MIC antibiotic alone; for MIC Oxa in Combination: oxacillin with the complex at ½ MIC (NH4PF6 250 µg/mL); for MIC Van in Combination: vancomycin with the complex at ½ MIC (NH4PF6 250 µg/mL); for MIC: Staphylococcus epidermidis
[2] = system: S. epidermidis ATCC 12228; assay: Cell lysis (bacteriolysis, OD600); type: cell-based, Staphylococcus epidermidis; conditions: 1 × MBC
S. aureus ATCC 29213 [3] = assay: Time-kill test; type: cell-based, Staphylococcus aureus; conditions: 1 × MIC
Description: (§1) The time-kill experiments were performed as described previously. Briefly, inocula were prepared in TSB medium (TSB; […] BTL Sp. z o.o., Łódź, Poland). All samples were incubated at 35 °C and 80 rpm for varied time intervals (2, 4, 6, 12, 18, 24, 48h). The percentage of dead cells was calculated according to the growth control by determining the number of living cells (CFU/mL) of each tube using the agar plate count method. Samples were immediately serially diluted ten-fold in 0.01 M phosphate buffered saline (PBS, Bimed Lublin S.A., Lublin, Poland) at pH 7.0 and 10 μL aliquots were spot-inoculated in duplicate onto MHA plates. Agar plates were incubated at 37 °C overnight before determining the viable count. Two independent experiments were carried out.

[4] = system: S. epidermidis ATCC 12228; assay: Time-kill test; type: cell-based, Staphylococcus epidermidis; conditions: 1 × MIC
Description: as §1

[5] = system: Staphylococcus aureus ATCC 29213; assay: Fluorescence microscopy, Hoechst 33258 / propidium iodide viability; type: cell-based; conditions: S. aureus ATCC 29213; MIC concentration, 24 h
Description: (§2) Staphylococcus aureus ATCC 29213 and Staphylococcus epidermidis ATCC 12228 strains were treated with tested compounds 2a–2d and 3a–3d at a concentration 1 × MIC for 24h, while untreated cells were used as a growth control. After incubation, the cells were harvested and a suspension of 1 × 10^5 cells/mL in PBS was prepared. Following this, 1 µl of the fluorescent dyes Hoechst 33258 and propidium iodide (15 µg/mL each) (Sigma, St. Louis, MO, USA) were added. The obtained mixture was incubated in the dark at room temperature for 15–20 min. After incubation, the cell suspensions, placed on glass slides, were analyzed under an Olympus IX 70 fluorescence microscope (Shinjuku, Tokyo, Japan), using a 360–370 nm UV filter. Photos were taken at 10 × 20 magnification.

[6] = system: Staphylococcus epidermidis ATCC 12228; assay: as above; type: cell-based; conditions: S. epidermidis ATCC 12228; MIC concentration, 24 h
Description: as §2

S. aureus ATCC 29213 [7] = assay: Synergy with oxacillin and vancomycin, partial checkerboard broth microdilution; type: cell-based, Staphylococcus aureus; conditions: for FIC (Oxa) / FIC (Van): MIC antibiotic in combination/MIC antibiotic alone; for MIC Oxa in Combination: oxacillin with the complex at ½ MIC (NH4PF6 250 µg/mL); for MIC Van in Combination: vancomycin with the complex at ½ MIC (NH4PF6 250 µg/mL); for MIC: Staphylococcus aureus
[8] = system: Candida albicans ATCC 10231; assay: MIC and MBC/MFC by broth microdilution; type: cell-based; conditions: C. albicans ATCC 10231
Description: (§3) Reference strains of bacteria and fungi: Staphylococcus aureus ATCC 29213, Staphylococcus epidermidis ATCC 12228, Enterococcus faecalis ATCC 29212, Pseudomonas aeruginosa ATCC 25619, Proteus vulgaris ATCC 8427, and Candida albicans ATCC 10231 (Manassas, VA, USA) were used to screen the antimicrobial activity of the arene-ruthenium(II) complexes 3a-3d, NH4PF6 and selected antibiotics. The microorganisms were grown for 24 h (bacteria) or 48 h (fungi) in 35-37 °C in tryptic-soy agar (TSA; BTL Sp. z o.o., Łódź, Poland) or Sabouraud's dextrose agar (SDA; BTL Sp. z o.o., Łódź, Poland) according to nutritional requirements. Microbial suspensions at a density of about 5 × 10^5 CFU/mL were prepared in Mueller-Hinton broth (MHB; BTL Sp. z o.o., Łódź, Poland) or RPMI-1640 medium (Sigma, St. Louis, MO, USA) for bacteria and fungi, respectively. […] Louis, MO, USA). Stock solutions of the lyophilized compounds were freshly prepared in 100% DMSO (POCh, Gliwice, Poland) for the complexes, or in water for injection (Sigma, St. Louis, MO, USA) in the case of antibiotics. […] MIC and MBC/MFC were defined as the lowest concentrations of the compounds inhibiting bacterial/fungal growth or able to kill added microbial inoculum, respectively, and were evaluated as described by […] et al.. Experiments were carried out in duplicate.

[9] = system: Proteus vulgaris ATCC 8427; assay: MIC and MBC/MFC by broth microdilution; type: cell-based; conditions: P. vulgaris ATCC 8427
Description: as §3

[10] = system: Pseudomonas aeruginosa ATCC 25619; assay: MIC and MBC/MFC by broth microdilution; type: cell-based; conditions: P. aeruginosa ATCC 25619
Description: as §3

[11] = system: Enterococcus faecalis ATCC 29212; assay: MIC and MBC/MFC by broth microdilution; type: cell-based; conditions: E. faecalis ATCC 29212
Description: as §3

[12] = system: Staphylococcus aureus ATCC 29213; assay: MIC and MBC/MFC by broth microdilution; type: cell-based; conditions: S. aureus ATCC 29213
Description: as §3

[13] = system: Staphylococcus epidermidis ATCC 12228; assay: MIC and MBC/MFC by broth microdilution; type: cell-based; conditions: S. epidermidis ATCC 12228
Description: as §3

[14] = system: human foreskin fibroblast HFF-1 (ATCC-SCRC-1041); assay: Cytotoxicity, MTT reduction assay; type: cell-based
Description: The cytotoxicity of arene-ruthenium(II) complexes 3a–3d was determined using the MTT (3-(4,5-dimethylthiazol-2-yl)-2,5-diphenyltetrazolium bromide; Sigma, St. Louis, MO, USA) reduction assay and a human foreskin fibroblast HFF-1 culture (ATCC-SCRC-1041) (LGC Standards Sp. z o.o., Poland) at a final concentration range of 3.9–500 µM. The HFF-1 cells were cultured in Dulbecco’s Modified Eagle’s Medium (DMEM; Sigma, St. Louis, MO, USA) with 15% fetal bovine serum (FBS; BioWest, Nuaillé, France) and penicillin/streptomycin (100 × stock solution; BioWest, Nuaillé, France), 1 × 10^6 cell/mL (100 µL/well) in 96-well tissue culture plates (Nunc, Roskilde, Denmark) for 24 h at 37 °C/5% CO2. The cells were then exposed to arene-ruthenium(II) complexes for 24 h at 37 °C. The control (untreated) cells were exposed to culture medium alone or culture medium containing 2% DMSO to exclude the effect of the solvent used to prepare the stock solutions of the tested complexes. Next, fresh culture medium (100 µL/well) and MTT (1.5 mg/mL, 50 µL/well) were added, and cells were incubated for two hours under the above conditions. MTT was […] blue formazan crystals produced by the metabolically active cells. Finally, the MTT solution was removed and replaced with 100 µL/well of 20% sodium dodecyl sulfate (SDS; Sigma, St. Louis, MO, USA) for 24 h (room temperature) to dissolve the blue formazan. Based on the absorbance (λ = 550 nm) of tested and control cells (100% viability), the percentage of cell viability after exposure was calculated. For each sample, the experiment was performed twice.

Row | Compound | FIC (Oxa) ([1]; S. epidermidis ATCC 12228) | FIC (Van) ([1]; S. epidermidis ATCC 12228) | MIC Oxa in Combination ([1]; S. epidermidis ATCC 12228) | MIC Van in Combination ([1]; S. epidermidis ATCC 12228) | FIC (Oxa) (S. aureus ATCC 29213 [7]; S. aureus ATCC 29213) | FIC (Van) (S. aureus ATCC 29213 [7]; S. aureus ATCC 29213) | MIC Oxa in Combination (S. aureus ATCC 29213 [7]; S. aureus ATCC 29213) | MIC Van in Combination (S. aureus ATCC 29213 [7]; S. aureus ATCC 29213) | MBC/MFC [8] | MIC [8] | MBC/MFC [9] | MBC/MFC [10] | MBC/MFC [11] | MIC [11] | MBC/MFC [12] | MBC/MFC [13] | further results
1 | Cc1cc(C)n(C(N)=S)n1.Cc1ccc(C(C)C)cc1.[Cl-].[Cl][Ru+] [Compound 2a] | 0.06 | 0.03 | 0.015 µg/mL | 0.015 µg/mL | 1 | 1 | 0.250 µg/mL | 0.50 µg/mL | – | – | – | – | – | – | – | – | Cell lysis, change of OD600 [2]: not found to change OD600 values; Time-kill: bacteriostatic or bactericidal (S. aureus ATCC 29213 [3]): bacteriostatic; Time-kill: bacteriostatic or bactericidal [4]: bacteriostatic; Change in bacterial viability (Hoechst 33258 / PI fluorescence) [5]: Less changes in cell survival; Change in bacterial viability (Hoechst 33258 / PI fluorescence) [6]: Less changes in cell survival
2 | Cc1ccc(C(C)C)cc1.Cc1ccc(C(C)C)cc1.[Cl][Ru][Cl].[Cl][Ru][Cl] [Dimer, dichloro(p-cymene)ruthenium(II) dimer] | 1 | 2 | 0.25 µg/mL | 1 µg/mL | 1 | 1 | 0.250 µg/mL | 0.50 µg/mL | – | – | – | – | – | – | – | – | Correlation with Oxa and Van (synergy), in words ([1]; S. epidermidis ATCC 12228): did not show any synergistic effect; Correlation with Oxa and Van (synergy), in words (S. aureus ATCC 29213 [7]; S. aureus ATCC 29213): did not show any synergistic effect
3 | OC(Cn1cncn1)(Cn1cncn1)c1ccc(F)cc1F [Flu, fluconazole, reference compound] | – | – | – | – | – | – | – | – | >16 µg/mL | >16 µg/mL | – | – | – | – | – | – | MIC ([8]; Candida albicans, ATCC10231, read-out: MIC): > 16 µg/mL
4 | CNC(C)C1CCC(N)C(OC2C(N)CC(N)C(OC3OCC(C)(O)C(NC)C3O)C2O)O1 (stereo not drawn) [Gen, gentamicin, reference compound] | – | – | – | – | – | – | – | – | – | – | 1 µg/mL (≈ 2.09 µM) | 16 µg/mL (≈ 33.5 µM) | <2 µg/mL | <2 µg/mL | – | – | MIC ([9]; Proteus vulgaris, ATCC8427, read-out: MIC): 1 µg/mL (≈ 2.09 µM); MIC ([10]; Pseudomonas aeruginosa, ATCC25619, read-out: MIC): 8 µg/mL (≈ 16.8 µM); MIC ([11]; Enterococcus faecalis, ATCC29212, read-out: MIC): < 2 µg/mL
5 | F[P-](F)(F)(F)(F)F.[NH4+] [NH4PF6, Ammonium hexafluorophosphate] | 1 | 2 | 0.25 µg/mL | 1 µg/mL | 1 | 1 | 0.250 µg/mL | 0.50 µg/mL | >1000 µg/mL | >1000 µg/mL | >1000 µg/mL | >1000 µg/mL | >1000 µg/mL | >1000 µg/mL | >1000 µg/mL | >1000 µg/mL | Correlation with Oxa and Van (synergy), in words ([1]; S. epidermidis ATCC 12228): did not show any synergistic effect; MIC [12]: >1000 µg/mL; MIC [9]: >1000 µg/mL; MIC [10]: >1000 µg/mL; MIC [13]: >1000 µg/mL; Correlation with Oxa and Van (synergy), in words (S. aureus ATCC 29213 [7]; S. aureus ATCC 29213): did not show any synergistic effect
6 | Cc1onc(-c2ccccc2)c1C(=O)N[C@@H]1C(=O)N2[C@@H]1SC(C)(C)[C@@H]2C(=O)O [Oxa, oxacillin, reference compound] | – | – | – | – | – | – | – | – | – | – | – | – | – | – | 0.5 µg/mL (≈ 1.25 µM) | 0.5 µg/mL (≈ 1.25 µM) | MIC ([1]; ATCC12228, S. epidermidis ATCC 12228, oxacillin without complex, read-out: MIC Oxa Alone): 0.25 µg/mL; MIC ([12]; Staphylococcus aureus, ATCC29213, read-out: MIC): 0.25 µg/mL (≈ 0.623 µM); MIC ([13]; Staphylococcus epidermidis, ATCC12228, read-out: MIC): 0.25 µg/mL (≈ 0.623 µM); MIC (S. aureus ATCC 29213 [7]; ATCC29213, S. aureus ATCC 29213, oxacillin without complex, read-out: MIC Oxa Alone): 0.25 µg/mL
7 | CN[C@H](CC(C)C)C(=O)N[C@H]1C(=O)N[C@@H](CC(N)=O)C(=O)N[C@H]2C(=O)N[C@H]3C(=O)N[C@H](C(=O)N[C@H](C(=O)O)c4cc(O)cc(O)c4-c4cc3ccc4O)[C@H](O)c3ccc(c(Cl)c3)Oc3cc2cc(c3O[C@@H]2O[C@H](CO)[C@@H](O)[C@H](O)[C@H]2O[C@H]2C[C@](C)(N)[C@H](O)[C@H](C)O2)Oc2ccc(cc2Cl)[C@H]1O [Van, vancomycin, reference compound] | – | – | – | – | – | – | – | – | – | – | – | – | – | – | – | – | MIC ([1]; ATCC12228, read-out: MIC Van Alone): 0.5 µg/mL; MIC (S. aureus ATCC 29213 [7]; ATCC29213, read-out: MIC Van Alone): 0.5 µg/mL
8 | [(η ^6 -p-cymene)Ru(1-[amino(thioxo)methyl]-5-hydroxy-3-methyl-1H-pyrazole)[PF6] [Compound 3d] | 0.25 | 0.06 | 0.06 µg/mL | 0.03 µg/mL | 1 | 2 | 0.250 µg/mL | 1 µg/mL | >1000 µg/mL | >1000 µg/mL | >1000 µg/mL | 1000 µg/mL | 500 µg/mL | 500 µg/mL | 500 µg/mL | 250 µg/mL | Change in bacterial viability (Hoechst 33258 / PI fluorescence) [5]: no significant changes in the viability; Change in bacterial viability (Hoechst 33258 / PI fluorescence) [6]: no significant changes in the viability; IC50 ([14]; HFF-1, MTT, 24 h, tested 3.9–500 μM): 892 µM; HFF-1 viability (lowest) ([14]; range 3.9–500 μM): ≥ 75%; MIC [12]: 125 µg/mL; MIC [9]: >1000 µg/mL; MIC [10]: 1000 µg/mL; MIC [13]: 125 µg/mL
